These results are taken from ChEMBL document CHEMBL4130361, “Synthesis, molecular modeling studies and bronchodilation properties of nicotinonitrile containing-compounds” (Eur J Med Chem, 2017).

SMILES strings stand for the structures.

For the first assay, the system named is Trachea. Put plainly: Potency index, ratio of theophylline IC50 to test compound IC50 for reduction in histamine-induced contractions in guinea pig tracheal rings. The assay is classed as functional, Cavia porcellus.
Settings: not given
As for `COc1nc(-c2ccccc2)cc(-c2ccc(Cl)cc2Cl)c1C#N`, the “Ratio IC50” value is given as 2.

For another assay, the system named is Trachea. The assay can be described thus: Induction of bronchodilation in guinea pig tracheal rings assessed as reduction in histamine-induced contractions. The assay is classed as functional, tissue-based. The following applies: Cavia porcellus.
`COc1nc(-c2ccncc2)cc(-c2ccc(Cl)cc2Cl)c1C#N`: the IC50 amounted to 11.8 µM.
Take `N#Cc1c(-c2ccc(Cl)cc2Cl)cc(-c2ccc(Cl)cc2)nc1N1CCOCC1`: the IC50 was determined as 6.71 µM.
Same read-out and setting: next, `CCOc1nc(-c2cccs2)cc(-c2ccc(Cl)cc2Cl)c1C#N`: 8.71 µM; `COc1nc(-c2ccccc2)cc(-c2ccc(Cl)cc2Cl)c1C#N`: 5.34 µM.
The same measure, in the same setting: next, `CCOc1nc2c(c(-c3ccc(Cl)cc3Cl)c1C#N)-c1ccccc1CC2`: 7.07 µM; `COc1nc(-c2ccc(Br)cc2)cc(-c2ccc(Cl)cc2Cl)c1C#N`: 8.02 µM; `COc1ccc(-c2cc(-c3ccc(Cl)cc3Cl)c(C#N)c(OC)n2)cc1`: 9.89 µM.
On the same count and under the same terms, the value for `COc1nc2c(c(-c3ccc(Cl)cc3Cl)c1C#N)CSc1ccccc1-2` was 11 µM.
As to `N#Cc1c(-c2ccc(Cl)cc2Cl)cc(-c2ccc(Cl)cc2)nc1Br`, the IC50 turned out to be 9.14 µM.
For `COc1cc2c(cc1OC)-c1nc(OC)c(C#N)c(-c3ccc(Cl)cc3Cl)c1C2`, the IC50 came to 6.8 µM.
Take `COc1nc(-c2cccs2)cc(-c2ccc(Cl)cc2Cl)c1C#N`: the IC50 stood at 3.28 µM.
Same read-out and setting: the value for `COc1nc2c(c(-c3ccc(Cl)cc3Cl)c1C#N)-c1ccccc1C2` was 9.11 µM.
Same read-out and setting: next, `CN1CCN(c2nc(-c3ccc(Cl)cc3)cc(-c3ccc(Cl)cc3Cl)c2C#N)CC1`: 13 µM; `COc1nc2c(c(-c3ccc(Cl)cc3Cl)c1C#N)CCCc1ccccc1-2`: 10 µM; `COc1nc(-c2ccc3ccccc3c2)cc(-c2ccc(Cl)cc2Cl)c1C#N`: 9.4 µM.
Consider `CCOc1nc(-c2ccc(F)cc2)cc(-c2ccc(Cl)cc2Cl)c1C#N`, for which the IC50 worked out at 8.02 µM.
Still for that read-out and setting: next, `COc1nc(-c2ccc(Cl)cc2)cc(-c2ccc(Cl)cc2Cl)c1C#N`: 7.55 µM.
The same measure, in the same setting: next, `COc1nc(-c2ccc(C)cc2)cc(-c2ccc(Cl)cc2Cl)c1C#N`: 10.6 µM; `CCN1CCN(c2nc(-c3ccc(Cl)cc3)cc(-c3ccc(Cl)cc3Cl)c2C#N)CC1`: 15.8 µM.
On the same count and under the same terms, next, `N#Cc1c(-c2ccc(Cl)cc2Cl)cc(-c2ccc(Cl)cc2)nc1N1CCCCC1`: 7.83 µM; `COc1nc2c(c(-c3ccc(Cl)cc3Cl)c1C#N)-c1ccccc1CC2`: 6.36 µM.
On to `CCOc1nc(-c2ccc(Br)cc2)cc(-c2ccc(Cl)cc2Cl)c1C#N`, for which the IC50 was 12.4 µM.
Same read-out and setting: the value for `COc1nc(-c2cccnc2)cc(-c2ccc(Cl)cc2Cl)c1C#N` was 17.1 µM; that for `COc1ccc(-c2cc(-c3ccc(Cl)cc3Cl)c(C#N)c(OC)n2)cc1OC` was 7.91 µM.
On the same count and under the same terms, next, `CCOc1nc2c(c(-c3ccc(Cl)cc3Cl)c1C#N)-c1ccccc1C2`: 11 µM.
On the same count and under the same terms, the value for `CCOc1nc2c(c(-c3ccc(Cl)cc3Cl)c1C#N)CCCc1ccccc1-2` was 13 µM; that for `COc1nc(-c2ccc(F)cc2)cc(-c2ccc(Cl)cc2Cl)c1C#N` was 7.43 µM; that for `COc1nc2c(c(-c3ccc(Cl)cc3Cl)c1C#N)COc1ccccc1-2` was 6.11 µM.
In the case of `CCOc1nc(-c2ccc(Cl)cc2)cc(-c2ccc(Cl)cc2Cl)c1C#N`, the IC50 amounted to 9.38 µM.
On the same count and under the same terms, the value for `Cn1c(=O)c2nc[nH]c2n(C)c1=O` [THEOPHYLLINE] was 11.6 µM.

As usually defined, the IC50 is the midpoint of a concentration-inhibition curve.
